Experimental data taken from patent US4330529A, “Antibacterial composition” (Fujisawa Pharmaceutical Co., Ltd., priority 1979, dated 1982).
Read-outs that look alike come from different tables or passages of the source.

Key:
Format in all cases: cell-based
[1] = system: Staphylococcus aureus 3; test: MIC and FIC, Nutrient agar (Tests 6, 7); conditions: Staphylococcus aureus; S. aureus 3; 18 h; read-out: MIC
Protocol: (§1) FIC values and FIC Index were calculated in substantially the same manner as described in Test 1.

[2] = system: Escherichia coli 116; test: MIC and FIC, Nutrient agar (Test 7); conditions: E. coli 116, 18 h
Protocol: as §1

[3] = system: Serratia marcescens 4; test: MIC and FIC, Nutrient agar (Test 9); conditions: S. marcescens 4, 18 h
Protocol: as §1

[4] = system: Proteus vulgaris 7; test: MIC and FIC, Nutrient agar (Tests 7, 9); conditions: P. vulgaris 7
[5] = system: Alcaligenes faecalis 1311-1; test: MIC and FIC, Nutrient agar (Test 2); conditions: 13111, A. faecalis 1311-1, 20 h
Protocol: (§2) After the incubation was carried out at 37° C. for 20 hours, MIC values were determined.
as §1

[6] = system: Proteus mirabilis 48; test: MIC and FIC, Nutrient agar (Test 7); conditions: P. mirabilis 48, 18 h
Protocol: as §1

[7] = system: Proteus mirabilis 5; test: MIC and FIC, Nutrient agar (Test 7); conditions: P. mirabilis 5, 18 h
Protocol: as §1

[8] = system: Enterobacter cloacae 18; test: MIC and FIC, Nutrient agar (Tests 7, 9); conditions: E. cloacae 18, 18 h
Protocol: as §1

[9] = system: Escherichia coli No.14; test: MIC and FIC, Nutrient agar, multiple inoculator (Test 4); conditions: E. coli No.14, 10^8 cells/ml, 20 h
Protocol: as §2

[10] = system: Pseudomonas aeruginosa No.14; test: as above; conditions: P. aeruginosa No.14, 10^8 cells/ml, 20 h
Protocol: as §2, §1

[11] = system: Pseudomonas aeruginosa No.9; test: as above; conditions: P. aeruginosa No.9, 10^8 cells/ml, 20 h
Protocol: as §2, §1

[12] = system: Pseudomonas aeruginosa No.12; test: MIC and FIC, Nutrient agar, multiple inoculator (Test 5); conditions: Pseudomonas aeruginosa; P. aeruginosa No.12; 10^8 cells/ml, 20 h; read-out: MIC
Protocol: as §2, §1

## O=CN(O)CCCP(=O)(O)O [A (Table 2)]
[1]
  MIC: 400 µg/mL
[2]
  MIC: 200 µg/mL
[3]
  MIC: 50 µg/mL
[4]; 18 h, listed as A (Table 15)
  MIC: 50 µg/mL
[4]; Proteus vulgaris, 7, 18 h
  MIC: 25 µg/mL
[5]
  MIC: ≥ 400 µg/mL
[6]
  MIC: 25 µg/mL
[7]
  MIC: 25 µg/mL
[8]; listed as A (Table 14)
  MIC: 100 µg/mL
[8]; Enterobacter cloacae, read-out: MIC
  MIC: 200 µg/mL
[9]
  MIC: 25 µg/mL
[10]
  MIC: 400 µg/mL
[11]
  MIC: > 800 µg/mL
[12]
  MIC: 800 µg/mL
